Species on record: Rattus norvegicus
Test: Open TG-GATES - Regimen: Single
Format: toxicity, organism-based, Sprague-Dawley
Design: regimen Single, gender Male, age 6 weeks
Details: in vivo, po, 2000 mg/kg, route gavage, dose level High; for APTT / Bas / Eos / Fbg / Hb / Ht / Lym / MCH / MCHC / MCV / Mono / Neu / PT / Plat / RBC / Ret / WBC: tissue Blood; for KIDNEY_L / KIDNEY_R / KIDNEY_TOTAL: tissue Kidney; for LIVER: tissue Liver; for A/G / ALP / ALT / AST / BUN / CRE / Ca / Cl / DBIL / GLC / IP / K / LDH / Na / PL / RALB / TBIL / TC / TG / TP / gamma-GTP: tissue Plasma

Clc1c(Cl)c(Cl)c(Cl)c(Cl)c1Cl [PERCHLOROBENZENE]
TERMINAL_BW (3 h): 219.3 g
APTT (3 h): 19.9 s
Bas (3 h): 0.4%
Eos (3 h): 1%
Fbg (3 h): 223.4 mg/dL
Hb (3 h): 13.8 g/dL
Ht (3 h): 38.5%
Lym (3 h): 76.4%
MCH (3 h): 22.1 pg
MCHC (3 h): 35.7%
MCV (3 h): 62 fL
Mono (3 h): 2.2%
Neu (3 h): 19.2%
PT (3 h): 12 s
Plat (3 h): 128.8 x10_4/uL
RBC (3 h): 621.4 x10_4/ul
Ret (3 h): 7.4%
WBC (3 h): 104.4 x10_2/uL
KIDNEY_L (3 h): 1 g
KIDNEY_R (3 h): 1 g
KIDNEY_TOTAL (3 h): 2 g
LIVER (3 h): 10.1 g
A/G (3 h): 1.6
ALP (3 h): 1055.8 IU/L
ALT (3 h): 37.2 IU/L
AST (3 h): 76.8 IU/L
BUN (3 h): 10.8 mg/dL
CRE (3 h): 0.4 mg/dL
Ca (3 h): 11 mg/dL
Cl (3 h): 103 meq/L
DBIL (3 h): 0.062 mg/dL
GLC (3 h): 192.6 mg/dL
IP (3 h): 9.3 mg/dL
K (3 h): 3.8 meq/L
LDH (3 h): 231.2 IU/L
Na (3 h): 141.4 meq/L
PL (3 h): 151 mg/dL
RALB (3 h): 3.4 g/dL
TBIL (3 h): 0.1 mg/dL
TC (3 h): 74.6 mg/dL
TG (3 h): 132 mg/dL
TP (3 h): 5.6 g/dL
gamma-GTP (3 h): 1.2 IU/L
TERMINAL_BW (6 h): 215.7 g
APTT (6 h): 19.3 s
Bas (6 h): 0.2%
Eos (6 h): 1%
Fbg (6 h): 239.6 mg/dL
Hb (6 h): 13.6 g/dL
Ht (6 h): 39.1%
Lym (6 h): 74%
MCH (6 h): 21.2 pg
MCHC (6 h): 34.6%
MCV (6 h): 61 fL
Mono (6 h): 2.6%
Neu (6 h): 20.8%
PT (6 h): 12 s
Plat (6 h): 134.1 x10_4/uL
RBC (6 h): 641.6 x10_4/ul
Ret (6 h): 7.1%
WBC (6 h): 105.2 x10_2/uL
KIDNEY_L (6 h): 0.9 g
KIDNEY_R (6 h): 0.9 g
KIDNEY_TOTAL (6 h): 1.8 g
LIVER (6 h): 9 g
A/G (6 h): 1.8
ALP (6 h): 1089.2 IU/L
ALT (6 h): 34 IU/L
AST (6 h): 77.2 IU/L
BUN (6 h): 9.4 mg/dL
CRE (6 h): 0.4 mg/dL
Ca (6 h): 10.6 mg/dL
Cl (6 h): 102.8 meq/L
DBIL (6 h): 0.072 mg/dL
GLC (6 h): 196.2 mg/dL
IP (6 h): 9.3 mg/dL
K (6 h): 3.9 meq/L
LDH (6 h): 219 IU/L
Na (6 h): 141.2 meq/L
PL (6 h): 132.6 mg/dL
RALB (6 h): 3.5 g/dL
TBIL (6 h): 0.1 mg/dL
TC (6 h): 73.8 mg/dL
TG (6 h): 55 mg/dL
TP (6 h): 5.5 g/dL
gamma-GTP (6 h): 1 IU/L
TERMINAL_BW (9 h): 214.9 g
APTT (9 h): 17.8 s
Bas (9 h): 0%
Eos (9 h): 1%
Fbg (9 h): 224.6 mg/dL
Hb (9 h): 13.5 g/dL
Ht (9 h): 38.5%
Lym (9 h): 74.2%
MCH (9 h): 21.5 pg
MCHC (9 h): 35.1%
MCV (9 h): 61.4 fL
Mono (9 h): 2.2%
Neu (9 h): 21%
PT (9 h): 12 s
Plat (9 h): 126.2 x10_4/uL
RBC (9 h): 626.2 x10_4/ul
Ret (9 h): 7.3%
WBC (9 h): 92.9 x10_2/uL
KIDNEY_L (9 h): 1 g
KIDNEY_R (9 h): 1 g
KIDNEY_TOTAL (9 h): 1.9 g
LIVER (9 h): 9 g
A/G (9 h): 1.7
ALP (9 h): 944.6 IU/L
ALT (9 h): 26.4 IU/L
AST (9 h): 68.4 IU/L
BUN (9 h): 10.6 mg/dL
CRE (9 h): 0.4 mg/dL
Ca (9 h): 10.6 mg/dL
Cl (9 h): 103.4 meq/L
DBIL (9 h): 0.064 mg/dL
GLC (9 h): 207.2 mg/dL
IP (9 h): 10.7 mg/dL
K (9 h): 4.1 meq/L
LDH (9 h): 216.6 IU/L
Na (9 h): 141.2 meq/L
PL (9 h): 130.2 mg/dL
RALB (9 h): 3.4 g/dL
TBIL (9 h): 0.1 mg/dL
TC (9 h): 68 mg/dL
TG (9 h): 44 mg/dL
TP (9 h): 5.4 g/dL
gamma-GTP (9 h): 0.8 IU/L
TERMINAL_BW (24 h): 231.5 g
APTT (24 h): 18.5 s
Bas (24 h): 0.2%
Eos (24 h): 1%
Fbg (24 h): 233.4 mg/dL
Hb (24 h): 13.7 g/dL
Ht (24 h): 39.3%
Lym (24 h): 76.4%
MCH (24 h): 21 pg
MCHC (24 h): 34.8%
MCV (24 h): 60.4 fL
Mono (24 h): 2.6%
Neu (24 h): 19%
PT (24 h): 11.6 s
Plat (24 h): 126.2 x10_4/uL
RBC (24 h): 651.6 x10_4/ul
Ret (24 h): 6%
WBC (24 h): 100 x10_2/uL
KIDNEY_L (24 h): 1 g
KIDNEY_R (24 h): 0.9 g
KIDNEY_TOTAL (24 h): 1.9 g
LIVER (24 h): 11.1 g
A/G (24 h): 1.5
ALP (24 h): 1190.4 IU/L
ALT (24 h): 36.2 IU/L
AST (24 h): 71.4 IU/L
BUN (24 h): 14.8 mg/dL
CRE (24 h): 0.4 mg/dL
Ca (24 h): 10.7 mg/dL
Cl (24 h): 103.4 meq/L
DBIL (24 h): 0.052 mg/dL
GLC (24 h): 195.6 mg/dL
IP (24 h): 7.4 mg/dL
K (24 h): 3.9 meq/L
LDH (24 h): 229.6 IU/L
Na (24 h): 141.2 meq/L
PL (24 h): 139.6 mg/dL
RALB (24 h): 3.3 g/dL
TBIL (24 h): 0.1 mg/dL
TC (24 h): 74 mg/dL
TG (24 h): 108.8 mg/dL
TP (24 h): 5.5 g/dL
gamma-GTP (24 h): 1.2 IU/L
